Marks after values point to notes of the source that are not given here.
Tests used:
[1] = system: model of bronchial asthma in guinea pigs; test: Content of cell elements in BAL in the model of bronchial asthma in guinea pigs; format: in vivo, guinea pig; conditions: Table 4; 14 mg/kg, 10 times of administration; n = 9
Procedure: Bronchial asthma in guinea pigs was induced by a standard method [Ricciardolo F L, Nijkamp F, De Rose V, Folkerts G. The guinea pig as an animal model for asthma// Current Drug Targets. 2008 June; 9(6):452-65]. The animals were immunized by one parenteral administration of 0.5 mL of a solution comprising 100 μg/mL ovalbumin (Sigma) and 100 mg/mL aluminium hydroxide. Intact animals received a physiological saline solution in an amount of 0.5 mL.
On days 29, 30 and 31, hyperactivity of the respiratory airways was provoked by inhalation administration of ovalbumin in ascending concentrations of 0.1, 0.3, and 0.5 mg/mL on days 1, 2, and 3 of the provocation, respectively. The inhalation lasted 5 minutes or until asphyxia symptoms became apparent (fall to one side). On day 32, the animals received a challenging dose of ovalbumin (1 mg/mL) for 5 minutes, while assessing a bronchospastic reaction.
The studied compounds were administered to the animals once daily every day for 6 or 10 days; the administration was terminated two days before the administration of the challenging dose of antigen.
The bronchoalveolar lavage (BAL) and cardiac cavity blood were derived from the animals 24 hours after administration of the challenging dose. The BAL was collected under anesthesia by lavaging the lungs with 5 mL of a physiological saline solution heated to 37° C. through the trachea, using a syringe dosing device.
The absolute number of cell elements in 1 μL of the lavage (cytosis) was counted in the bronchoalveolar lavage, using the Goryaev camera. Then, the BAL was centrifuged at 200 g for 10 minutes. The residue was used to prepare swabs that were fixed in methanol and stained according to Romanovsky-Giemsa to count endopulmonary cytogram.
The study comprised 3 experiments, wherein the first one was directed to the evaluation of the effect of claimed compounds 1-6 on the cell composition of the BAL, the second and the third experiments were aimed at evaluating the effect of compounds 1 and 2 on the cell composition of the BAL, the cell composition of the blood, and on the bronchospasm severity.

[2] = system: model of sephadex-induced eosinophilic lung inflammation in rats; test: Content of cell elements in BAL in the model of sephadex-induced eosinophilic lung inflammation in rats; format: in vivo, male Wistar rats; conditions: Table 9, four times, BAL 48 hours after sephadex, n = 7
Procedure: The model of sephadex-induced eosinophilic lung inflammation in rats was realized by a standard method [Evaldsson C, Rydén I, Uppugunduri S. Isomaltitol exacerbates neutrophilia but reduces eosinophilia: new insights into the sephadex model of lung inflammation//Int Arch Allergy Immunol. 2011; 154(4):286-94]. Sephadex G-200 (Pharmacia, Sweden) was administered one time by inhalation to male Wistar rats at a dose of 5 mg/kg. The studied compounds were administered to the animals by the intragastric route four times: 24 hours and 1 hour before and 24 hours and 45 hours after administration of sephadex. The reference preparation, budesonide, was administered according to the same scheme, by inhalation at a dose of 0.5 mg/kg. Bronchoalveolar lavage was taken 48 hours after the inhalation of sephadex, and the total lymphocyte count and leukocyte formula in the lavage were determined. The number of rats in a group was 7 to 10.

## CC1(C)CC(=O)N(CCc2cnc[nH]2)C(=O)C1 [Compound 3]
[1]
  Eosinophils in BAL: 0.93 ± 0.31*& 10^9/L
  Lymphocytes in BAL: 0.72 ± 0.08* 10^9/L
  Monocytes in BAL: 0.71 ± 0.18& 10^9/L
  Neutrophils in BAL: 0.36 ± 0.08 10^9/L

## O=C1CCCC(=O)N1CCc1nc2ccccc2s1 [Compound 4, 1-(2-(1,3-benzothiazol-2-yl)ethyl)piperidine-2,6-dione]
[1]
  Eosinophils in BAL: 1.25 ± 0.34*& 10^9/L
  Lymphocytes in BAL: 0.81 ± 0.11* 10^9/L
  Monocytes in BAL: 0.85 ± 0.19& 10^9/L
  Neutrophils in BAL: 0.43 ± 0.12 10^9/L

## Cl.O=C1CCCC(=O)N1CCC1CCCN1 (stereo not shown) [Compound 7]
[2]; 1.8 mg/kg intragastric
  Eosinophils, content of cell elements in 1 μL of BAL: 28 ± 16& in 1 μL of BAL
  Leukocytes, content of cell elements in 1 μL of BAL: 2242 ± 289& in 1 μL of BAL
  Lymphocytes, content of cell elements in 1 μL of BAL: 16 ± 10 in 1 μL of BAL
  Macrophages, content of cell elements in 1 μL of BAL: 913 ± 235& in 1 μL of BAL
  Neutrophils, content of cell elements in 1 μL of BAL: 389 ± 188 in 1 μL of BAL
[2]; 18 mg/kg intragastric
  Eosinophils, content of cell elements in 1 μL of BAL: 164 ± 62 & in 1 μL of BAL
  Leukocytes, content of cell elements in 1 μL of BAL: 1725 ± 345& in 1 μL of BAL
  Lymphocytes, content of cell elements in 1 μL of BAL: 29 ± 17 in 1 μL of BAL
  Macrophages, content of cell elements in 1 μL of BAL: 909 ± 299& in 1 μL of BAL
  Neutrophils, content of cell elements in 1 μL of BAL: 136 ± 50& in 1 μL of BAL

## O=C1CCCC(=O)N1CCc1nccs1 [Compound 6]
[1]
  Eosinophils in BAL: 0.60 ± 0.21*& 10^9/L
  Lymphocytes in BAL: 1.03 ± 0.24* 10^9/L
  Monocytes in BAL: 0.83 ± 0.18* 10^9/L
  Neutrophils in BAL: 0.97 ± 0.28* 10^9/L
